Like-named read-outs stand apart in the source and are kept apart here.
Assays:
P-gp = test: Rho-123 transport assay (flow cytometry) for P-gp activity with RT and NF-κB inhibitor SN50; format: cell-based; details: Huh-7, 20 μM Rho-123
Procedure: In brief, Huh-7 cells were seeded in a 6-well plate. RT0Gy, RT2Gy, or RT9Gy was applied. At 1 hr or 24 hr after RT, ketoconazole (a P-gp inhibitor), digoxin (a P-gp substrate) and DMSO were added to the corresponding wells and incubated at 37 °C. The existing medium was replaced with 20 μM Rho-123 solution and incubated for 1 hr. Then, the cells were analyzed (10000 cells/sample) to measure Rho-123 accumulation with a FACSCalibur flow cytometer (excitation (Ex) = 515 nm, emission (Em) = 545 nm; Becton Dickinson, San Jose, CA, USA). The data were analyzed with CellQuest software (Becton Dickinson, San Jose, CA, USA).
The peptide SN50 inhibits nuclear translocation of NF-κB. SN50M was used as a negative control. In brief, Huh-7 cells were pretreated with 20 μM SN50 or SN50M (Enzo Life Sciences, Inc., Farmingdale, NY, USA) for 1 hr and were then irradiated. At 1 hr or 24 hr after RT, the existing medium was replaced with 20 μM Rho-123 and incubated for 1 hr. The cells were analyzed (10000 cells/sample) to measure Rho-123 accumulation with a FACSCalibur flow cytometer (Ex = 515 nm, Em = 545 nm; Becton Dickinson, San Jose, CA, USA). The data were analyzed with CellQuest software (Becton Dickinson, San Jose, CA, USA).

[1] = Biliary excretion pharmacokinetics of Rho-123 after RT in freely moving rats; format: in vivo, Sprague-Dawley rats; details: for AUC(0-t) / Cmax / MRT / Tmax / clearance / half-life: Sprague-Dawley, rat, bile, iv, 0.2 mg/kg, biliary excretion; for half-life: read-out: t½
Procedure: A freely moving rat model was designed for the current study[21] (Fig. 1A). Experimental rats were anesthetized with 1 g/mL urethane and 0.1 g/mL α-chloralose (1 mL/kg by intraperitoneal [i.p.] injection), and polyethylene tubes were then implanted in the right jugular vein for intravenous (i.v.) fluid administration. The right jugular vein was catheterized for blood sampling. The catheter traversed the subcutaneous tissue and was fixed in the dorsal neck region. After surgery, the rats were placed in an experimental cage and allowed to recover for 1 day. During the recovery period, the rats were kept warm under a light. Then, the rats were anesthetized and immobilized on a board while undergoing CT for localization of the whole liver (conventional technique, Fig. 1B) or a central area of 1.5 × 1.5 cm (SBRT technique, Fig. 1C). […] An equal volume of methanol was added to 100-μL aliquots of bile and plasma sample specimens for deproteinization. The mixture was vortexed for 15 s and centrifuged at 12000 × g for 10 min.

[2] = RT2Gy, Rho-123 10 min later (concurrent)
[3] = RT2Gy, Rho-123 24 hr later (sequential)
[4] = RT9Gy, Rho-123 10 min later (concurrent)
[5] = RT9Gy, Rho-123 24 hr later (sequential)
[6] = sham RT, Rho-123 0.2 mg/kg i.v., rats

AUC(0-t) ([1]; RT2Gy, Rho-123 0.2 mg/kg i.v. 10 min later (concurrent)): 3170 ng·h/mL
AUC(0-t) ([1]; RT2Gy, Rho-123 0.2 mg/kg i.v. 24 hr later (sequential)): 1920 ng·h/mL
Cmax [1, 2]: 3560 ± 1930 ng/mL
MRT [1, 2]: 66 min
Tmax [1, 2]: 11 min
clearance [1, 2]: 0.92 ± 0.23 mL/min/kg
half-life [1, 2]: 46 ± 13 min
Cmax [1, 3]: 2240 ± 570 ng/mL
MRT [1, 3]: 47 min
Tmax [1, 3]: 9 min
clearance [1, 3]: 1.73 ± 0.61 mL/min/kg
half-life [1, 3]: 32 ± 8 min
AUC(0-t) ([1]; RT9Gy, Rho-123 0.2 mg/kg i.v. 10 min later (concurrent)): 2710 ng·h/mL
AUC(0-t) ([1]; RT9Gy, Rho-123 0.2 mg/kg i.v. 24 hr later (sequential)): 1660 ng·h/mL
Cmax [1, 4]: 2860 ± 830 ng/mL
MRT [1, 4]: 66 min
Tmax [1, 4]: 11 min
clearance [1, 4]: 1.07 ± 0.33 mL/min/kg
half-life [1, 4]: 43 ± 6 min
Cmax [1, 5]: 2070 ± 750 ng/mL
MRT [1, 5]: 50 min
Tmax [1, 5]: 13 min
clearance [1, 5]: 1.91 ± 0.56 mL/min/kg
half-life [1, 5]: 34 ± 9 min
AUC(0-t) [1, 6]: 1880 ng·h/mL
Cmax [1, 6]: 2010 ± 600 ng/mL
MRT [1, 6]: 61 min
Tmax [1, 6]: 14 min
clearance [1, 6]: 1.56 ± 0.3 mL/min/kg
half-life [1, 6]: 42 ± 13 min
Increase in AUC of biliary excretion ([1]; concurrent RT2Gy compared to sham group): 69.0%
Increase in AUC of biliary excretion ([1]; concurrent RT9Gy compared to sham group): 44.2%
Decrease in AUC of biliary excretion ([1]; sequential RT2Gy compared to concurrent RT2Gy): 39.5%
Decrease in AUC of biliary excretion ([1]; sequential RT9Gy compared to concurrent RT9Gy): 38.6%
Compound: COC(=O)c1ccccc1-c1c2ccc(=N)cc-2oc2cc(N)ccc12 [Rho-123, rhodamine 123]
Rho-123 intensity (P-gp; concurrent RT2Gy): 99.2 ± 2.2
Rho-123 intensity (P-gp; concurrent RT9Gy): 93.6 ± 3.4
Rho-123 intensity (P-gp; sequential RT2Gy): 103.8 ± 0.6
Rho-123 intensity (P-gp; sequential RT9Gy): 118.4 ± 0.9

Source: publication PMC7293270 (Scientific Reports, 2020)
